From BigSolDB 2.1

COc1ccc2[nH]cc(CCNC(C)=O)c2c1
solubility (mole fraction)
Conditions | 278.15 K | 283.15 K | 288.15 K | 293.15 K | 298.15 K | 303.15 K | 308.15 K | 313.15 K | 318.15 K | 323.15 K
in 2-ethoxyethanol | 0.0643 | 0.0729 | 0.0809 | 0.0919 | 0.103 | 0.113 | 0.126 | 0.138 | 0.152 | 0.168
in 2-methoxyethanol | 0.0729 | 0.0819 | 0.0921 | 0.103 | 0.115 | 0.129 | 0.142 | 0.159 | 0.173 | 0.191
in DMF | 0.177 | 0.191 | 0.205 | 0.221 | 0.235 | 0.251 | 0.267 | 0.285 | 0.302 | 0.321
